Each structure is given as a SMILES string. Calls of active or inactive are those of the source. The calls are words filed in the database; no cut-off is given here.

This passage reports Activity, IC50 and inhibition results from ChEMBL document CHEMBL5579852, “Promising anti-proliferative indolic benzenesulfonamides alter mechanisms with sulfonamide nitrogen substituents” (Eur J Med Chem, 2024).

Series [1] has as its system MES-SA. The series can be described thus: Induction of apoptosis in human MES-SA cells assessed as caspase 3/7 activation at 1 uM incubated for 48 to 72 hrs by live-cell imaging based fluorescence assay. The note with it: time lower […], time upper 72.0 hrs. The series is classed as functional.
Series [2] has as its system MES-SA. The series can be described thus: Induction of apoptosis in human MES-SA cells assessed as caspase 3/7 activation at 1 uM incubated for 24 hrs by live-cell imaging based fluorescence assay. The format is functional.
Series [3] deals with MCF7. The experiment in a line: Antiproliferative activity against human MCF7 cells assessed as reduction in cell viability incubated for 72 hrs by CelltiterGlo luminescent assay. The format is functional, cell-based. Conditions: MCF7, 72 h. A general note: ATP-based viability assays read luminescence as a measure of living cells.
Series [4] concerns MDA-MB-468. The series can be described thus: cells. Conditions: Homo sapiens, MDA-MB-468, 72 h.
Description: Antiproliferative activity against human MDA-MB-468 cells assessed as reduction in cell viability incubated for 72 hrs by CelltiterGlo luminescent assay
Series [5] has as its system MES-SA. The series can be described thus: Induction of apoptosis in human MES-SA cells assessed as increase in caspase 3/7 activation at 100 nM by live-cell imaging based fluorescence assay. The series is classed as functional. The note with it: time 3.0 day, TDE = time-dependent effect.
Series [6] can be described thus: cells. Conditions: Homo sapiens, MDA-MB-468, 72 h.
In series [7] the test system is HeLa. The series can be described thus: Antiproliferative activity against human HeLa cells assessed as reduction in cell viability incubated for 72 hrs by MTT assay. The format is functional, cell-based.
In series [8] the test system is HT-1080. The experiment in a line: Antiproliferative activity against human HT-1080 cells assessed as reduction in cell viability incubated for 72 hrs by CelltiterGlo luminescent assay. Conditions: HT-1080, 72 h.
Series [9] concerns A-375. The experiment in a line: Antiproliferative activity against human A-375 cells assessed as reduction in cell viability incubated for 72 hrs by CelltiterGlo luminescent assay. Conditions: A-375, 72 h.
In series [10] the test system is MES-SA. The series can be described thus: Induction of apoptosis in human MES-SA cells assessed as apoptotic cells at 100 nM incubated for 24 hrs by live/dead orange and TUNEL staining based flow cytometry analysis relative to control. The series is classed as functional. (In general: Flow cytometry measures light scatter and fluorescence of single cells or particles in a stream.)

Series [11] in a line: Antiproliferative activity against human RPE-1 cells assessed as reduction in cell viability incubated for 72 hrs by CelltiterGlo luminescent assay. The series is classed as toxicity, cell-based. The note with it: RPE-1 cells (TERT-RPE1).
In series [12] the test system is MES-SA. The experiment in a line: Induction of apoptosis in human MES-SA cells assessed as late apoptotic cells at 100 nM incubated for 24 hrs by live/dead orange and TUNEL staining based flow cytometry analysis relative to control. The format is functional.
A short description of series [13]: Antiproliferative activity against human HEK293 cells assessed as reduction in cell viability incubated for 72 hrs by CelltiterGlo luminescent assay. The format is toxicity, cell-based.
In series [14] the test system is CAKI-1. The series can be described thus: Antiproliferative activity against human CAKI-1 cells assessed as reduction in cell viability incubated for 72 hrs by CelltiterGlo luminescent assay. Conditions: CAKI-1, 72 h.
Series [15] is described as follows: Antiproliferative activity against human Melmet 5 cells assessed as reduction in cell viability incubated for 72 hrs by CelltiterGlo luminescent assay. Conditions: Melmet 5, 72 h.
The subject of series [16] is MES-SA. The series can be described thus: Induction of apoptosis in human MES-SA cells assessed as necrotic cells at 100 nM incubated for 24 hrs by live/dead orange and TUNEL staining based flow cytometry analysis relative to control. The format is functional.
Series [17] relates to MES-SA. The experiment in a line: Cell cycle distribution in human MES-SA cells assessed as accumulation of cells in G2/M phase cells at 100 nM incubated for 24 hrs by Hoechst 33258 staining based flow cytometry (reference value: 13.3 %). The format is functional.
Series [18] has as its system MES-SA. The experiment in a line: Cell cycle distribution in human MES-SA cells assessed as accumulation of cells in G1 phase cells at 100 nM incubated for 24 hrs by Hoechst 33258 staining based flow cytometry (reference value: 60%). The format is functional.
Series [19] concerns HeLa. The experiment in a line: Antiproliferative activity against human HeLa cells assessed as reduction in cell viability incubated for 72 hrs by CelltiterGlo luminescent assay. The format is functional, cell-based.
Series [20] deals with BT-474. The series can be described thus: Antiproliferative activity against human BT-474 cells assessed as reduction in cell viability incubated for 72 hrs by CelltiterGlo luminescent assay. The note with it: BT-474, 72 h.
Series [21] addresses Tubulin (Homo sapiens) (UniProt P68371+Q9H4B7+P0DPH7+P68366+Q13509+Q71U36+P04350+Q3ZCM7+P07437+P68363+Q9BQE3+Q6PEY2+Q13885+Q9BVA1+Q9BUF5). The series can be described thus: Inhibition of tubulin polymerization in human MES-SA cells assessed as appearance of spherical shaped cells at 10 nM incubated for 24 hrs by DAPI staining based confocal microscopy analysis. The format is cell-based.

Series [22] can be described thus: Antiproliferative activity against human Hermes 3C cells assessed as reduction in cell viability incubated for 72 hrs by CelltiterGlo luminescent assay. The series is classed as toxicity, cell-based.
Series [23] has as its system MES-SA. The experiment in a line: Cell cycle distribution in human MES-SA cells assessed as accumulation of cells in S phase cells at 100 nM incubated for 24 hrs by Hoechst 33258 staining based flow cytometry (reference value: 27 %). The format is functional.
The subject of series [24] is MES-SA. The experiment in a line: Induction of apoptosis in human MES-SA cells assessed as dead cells at 100 nM incubated for 24 hrs by live/dead orange and TUNEL staining based flow cytometry analysis relative to control. The format is functional.
Series [25] in a line: Antiproliferative activity against human WM1366 cells assessed as reduction in cell viability incubated for 72 hrs by CelltiterGlo luminescent assay. Conditions: WM1366, 72 h.
Series [26] deals with MES-SA. The experiment in a line: Cell cycle distribution in human MES-SA cells assessed as accumulation of cells in G2 phase cells at 100 nM incubated for 24 hrs by Hoechst 33258 staining based flow cytometry (reference value: 12 %). The series is classed as functional.
Series [27] deals with MES-SA. The series can be described thus: Antiproliferative activity against human MES-SA cells assessed as reduction in cell viability incubated for 72 hrs by CelltiterGlo luminescent assay.
Series [28] has as its system HeLa. The series can be described thus: Antiproliferative activity against human HeLa cells assessed as inhibition of cell growth incubated for 72 hrs in presence of verapamil by MTT assay. The format is functional, cell-based. Background: Formazan colour is commonly taken as a measure of viable cells.
Series [29] deals with MES-SA. The experiment in a line: Induction of apoptosis in human MES-SA cells assessed as live cells at 100 nM incubated for 24 hrs by live/dead orange and TUNEL staining based flow cytometry analysis relative to control. The format is functional.
Series [30] concerns MES-SA. The series can be described thus: Cell cycle distribution in human MES-SA cells assessed as accumulation of cells in M phase cells at 100 nM incubated for 24 hrs by Hoechst 33258 staining based flow cytometry (reference value: 1.3 %). The series is classed as functional.
The subject of series [31] is HeLa. The series can be described thus: Antiproliferative activity against human HeLa cells assessed as inhibition of cell growth incubated for 72 hrs in absence of verapamil by MTT assay. The series is classed as functional, cell-based.
Series [32] has as its system CAKI-1. The experiment in a line: Antiproliferative activity against human CAKI-1 cells assessed as reduction in cell viability incubated for 72 hrs by CelltiterGlo luminescent assay.

Turning to `CN[C@@H]1C[C@H]2O[C@@](C)([C@@H]1OC)n1c3ccccc3c3c4c(c5c6ccccc6n2c5c31)C(=O)NC4`, the result in series [1] was inactive. In addition, the result in [2] was Active.

As a reminder, the IC50 is the concentration that inhibits the measured activity by half. As for `COc1cc(S(=O)(=O)N(CC#N)c2ccc3c(ccn3C)c2)cc(OC)c1OC`, the half-inhibitory concentration (IC50) in [3] was determined as 13.7 nM; in series [4], 13 nM; in series [6], 14.8 nM; in series [7], 1.7 nM; in series [8], 9.9 nM; in series [9] it was 22.1 nM. The IC50 in series [14] worked out at 56.2 nM; in series [15], 8.9 nM; in series [19] it was 11 nM; in series [20], 68.3 nM; in series [25], 52.8 nM; in series [27], 8.9 nM. The IC50 in series [28] came to 16.3 nM; in [31], 22.3 nM. Further, the Activity result is “Tde” in [5]; 3.1% in series [10]; 0.5% in series [12]; 4.5% in [16]; 83.6% in series [17]; 4% in series [18]. The Activity in [23] is reported as 6%; in [24] it was 8%; in series [26], 35%; in [29], 92%; in [30], 48.6%. For the same compound, the IC50 at 72 h in [11] was 80.4 nM; in [13], 23.4 nM; in [22], 44.7 nM. Moreover, the inhibition entry in series [21] was “inactive”.

Turning to `COc1cc(S(=O)(=O)N(C)c2ccc3c(c2)c(C#N)cn3C)cc(OC)c1OC`, the IC50 in series [3] was found to be 12.3 nM; in series [4] it was 28 nM; in series [6], 69.5 nM; in series [7], 8 nM; in series [8], 15.3 nM; in [9] it was 11.7 nM. Further, the half-inhibitory concentration (IC50) came to 10.6 nM in [15]; 16 nM in series [19]; 16.3 nM in [20]; 20.2 nM in series [25]; 6.3 nM in [27]; 24.6 nM in [28]. In series [31], the IC50 was 25.7 nM. The Activity result in series [5] was “Tde”; in [10], 5%; in [12] it was 1.3%; in series [16], 2.3%; in series [17] it was 83.6%; in [18] it was 4%. Also, the Activity amounted to 6% in [23], 10% in [26], 91.4% in [29] and 75.3% in [30]. The IC50 at 72 h in series [11] was 13.2 nM; in series [13], 29 nM; in [22] it was 45.6 nM. Moreover, the result in [32] was inactive. Also, the inhibition result in series [21] is “Active”.
